# Assay results taken from US20150307938A1, “METHOD TO IDENTIFY A NOVEL CLASS OF IMMUNOLOGIC ADJUVANTS” (Lancell, L.L.C., priority 2011, published 2015).
# Marks after values point to notes of the source that are not given here.
# System: full thickness skin
# Test: Whole genome array of skin gene expression after topical DBP (time course)
# Type: in vivo, C57BL/6J mice
# Method: Mice: C57BL/6J female mice obtained from The Jackson Laboratory were used between 8 and 12 weeks of age.
# Treatment: Mice were untreated or treated topically on the dorsal side of each ear with […] of dibutylphthalate (DBP). At the designated time points after treatment, the animals were euthanized and the ears washed with 70% isopropanol. Full thickness skin was obtained from the dorsal side of both ears and placed immediately in liquid nitrogen. The time between euthanasia and placement of both skin samples in liquid nitrogen was less than 1 minute. Each sample for RNA extraction contained two dorsal ear skin samples obtained from a single mouse both of whose ears received the same treatment.
# RNA Extraction: While in liquid nitrogen, the skin was pulverized with a motorized mortar and pestle (CryoGrinder), transferred by inversion of the mortar directly into 1.5 ml cryogenic vials (Nalgene) and stored in liquid nitrogen until RNA extraction. Total RNA from both ears was extracted by homogenization (Pro200) in TRIzol Reagent (Invitrogen) with 7.5 μg of RNase-free glycogen added to the mixture, according to the manufacturer's directions. The RNA was purified on a solid phase RNeasy MinElute Cleanup column (Qiagen) and eluted with 17 μL of RNase-free water. The samples were stored at −20° C. until use.
# Quantification of RNA: RNA yields were quantified by UV absorption using a NanoDrop NG-1000 spectrophotometer, where 1 AU 260 equals 40 μg RNA/ml. Purity was estimated by the 260 and 280 nm absorbance ratio; values between 1.7 and 2.1 were considered acceptable.
# Assessment of RNA Quality: The quality of sample RNA was assessed using a RNA 6000 LABCHIP Kit on an Agilent 2100 Bioanalyzer. The Bioanalyzer determines the integrity/purity of the RNA samples and permits the screening of total and mRNA sample degradation and ribosomal RNA contamination. An RNA 6000 ladder was also loaded on a specified well and used as a reference for data analysis and a built-in quality control measure. The quality and integrity of the RNA was determined through visual inspection of each electropherogram. In general, only samples with a RIN (RNA integrity number) of 7 or greater, as determined by the Bioanalyzer, were used for gene arrays. This quality control analysis was repeated following the labeling procedure to ensure that the probes were efficiently labeled and had the correct size before hybridization to the chips. All samples that were run on genome wide arrays were obtained as independent duplicates from two individual mice.
# Microarray Data Interpretation: Gene expression was compared between untreated and treated total RNA samples. “Transition” data, which represent the change in expression level for a given gene, are presented as a “weighted difference.” Changes in gene expression level were considered to be significant when the adjusted p values were less than […]. The “gene expression signature” arbitrarily includes only those genes that were transcribed with a weighted increase of 2.0 or greater, which was sustained over the subsequent time points tested.
# The weighted difference is a metric that takes into account both the variability between different time-points and the variability between replicates at the same time-point. The calculations are performed for each time-point transition, i.e., 30 minutes vs. 1 hour, 1 hour vs. 2 hours, etc. There are two steps to the calculation: the calculation of a modified Euclidean difference between the two time-points, and the calculation of the Euclidean difference between the replicates within each time-point. The first measure is an unweighted difference, while the final metric given in the spreadsheet “weights” this difference by taking into account the second measure.
# In a Euclidean difference calculation, each data point is considered as a vector in a multi-dimensional space, and the actual straight-line distance between the data points is calculated. […]
# [1] = First 15 min after DBP application
structure (smiles),measurement,setting,value
"CCCCOC(=O)c1ccccc1C(=O)OCCCC [DBP, dibutylphthalate]","DBP Unique genes, number",2 hr,42
same,"DBP-Induced genes (≧2x Increased Expression), number",2 hr,112
same,"TLR-Induced among DBP-induced genes, number",2 hr,70^#
same,Acot5 Change in Gene Expression (Weighted Difference),2 hr to 4 hr Transition,2.191
same,Akr1c18 Change in Gene Expression (Weighted Difference),2 hr to 4 hr Transition,−0.08563
same,Areg Change in Gene Expression (Weighted Difference),2 hr to 4 hr Transition,3.401
same,Atp2c2 Change in Gene Expression (Weighted Difference),2 hr to 4 hr Transition,−0.002189
same,Btg2 Change in Gene Expression (Weighted Difference),2 hr to 4 hr Transition,1.009
same,Ccr4 Change in Gene Expression (Weighted Difference),2 hr to 4 hr Transition,0.03996
same,Cdh10 Change in Gene Expression (Weighted Difference),2 hr to 4 hr Transition,−0.008005
same,Cish Change in Gene Expression (Weighted Difference),2 hr to 4 hr Transition,0.7204
same,Cox17 Change in Gene Expression (Weighted Difference),2 hr to 4 hr Transition,−0.1255
same,Ctgf Change in Gene Expression (Weighted Difference),2 hr to 4 hr Transition,2.29
same,Cysltr1 Change in Gene Expression (Weighted Difference),2 hr to 4 hr Transition,−0.8049
same,Ddx21 Change in Gene Expression (Weighted Difference),2 hr to 4 hr Transition,2.413
same,Dlx4 Change in Gene Expression (Weighted Difference),2 hr to 4 hr Transition,3.05
same,Dusp14 Change in Gene Expression (Weighted Difference),2 hr to 4 hr Transition,2.291
same,Egr1 Change in Gene Expression (Weighted Difference),2 hr to 4 hr Transition,2.348
same,Egr2 Change in Gene Expression (Weighted Difference),2 hr to 4 hr Transition,0.5934
same,Fam115c Change in Gene Expression (Weighted Difference),2 hr to 4 hr Transition,2.163
same,Fbxo42 Change in Gene Expression (Weighted Difference),2 hr to 4 hr Transition,2.267
same,Fosl1 Change in Gene Expression (Weighted Difference),2 hr to 4 hr Transition,4.432
same,Frk Change in Gene Expression (Weighted Difference),2 hr to 4 hr Transition,−0.0494
same,Gart Change in Gene Expression (Weighted Difference),2 hr to 4 hr Transition,5.268
same,Gbp8 Change in Gene Expression (Weighted Difference),2 hr to 4 hr Transition,−0.04223
same,Gem Change in Gene Expression (Weighted Difference),2 hr to 4 hr Transition,1.546
same,Gimap7 Change in Gene Expression (Weighted Difference),2 hr to 4 hr Transition,0.03205
same,Has1 Change in Gene Expression (Weighted Difference),2 hr to 4 hr Transition,2.54
same,Ier3 Change in Gene Expression (Weighted Difference),2 hr to 4 hr Transition,4.521
same,Il10 Change in Gene Expression (Weighted Difference),2 hr to 4 hr Transition,2.932
same,Il10ra Change in Gene Expression (Weighted Difference),2 hr to 4 hr Transition,0.1254
same,Il20 Change in Gene Expression (Weighted Difference),2 hr to 4 hr Transition,2.876
same,Irf4 Change in Gene Expression (Weighted Difference),2 hr to 4 hr Transition,3.715
same,Jun Change in Gene Expression (Weighted Difference),2 hr to 4 hr Transition,0.9971
same,Junb Change in Gene Expression (Weighted Difference),2 hr to 4 hr Transition,0.9119
same,Kcnk1 Change in Gene Expression (Weighted Difference),2 hr to 4 hr Transition,32.8
same,LOC100046066 Change in Gene Expression (Weighted Difference),2 hr to 4 hr Transition,−0.1464
same,LOC100046410 Change in Gene Expression (Weighted Difference),2 hr to 4 hr Transition,2.134
same,Lcn5 Change in Gene Expression (Weighted Difference),2 hr to 4 hr Transition,3.183
same,Madcam1 Change in Gene Expression (Weighted Difference),2 hr to 4 hr Transition,−0.01081
same,Maml1 Change in Gene Expression (Weighted Difference),2 hr to 4 hr Transition,3.564
same,Map3k11 Change in Gene Expression (Weighted Difference),2 hr to 4 hr Transition,2.249
same,Med17 Change in Gene Expression (Weighted Difference),2 hr to 4 hr Transition,−2.259E−05
same,Mkks Change in Gene Expression (Weighted Difference),2 hr to 4 hr Transition,−0.2406
same,Mndal Change in Gene Expression (Weighted Difference),2 hr to 4 hr Transition,0.09548
same,Mtap7d1 Change in Gene Expression (Weighted Difference),2 hr to 4 hr Transition,6.99
same,Myc Change in Gene Expression (Weighted Difference),2 hr to 4 hr Transition,1.296
same,Myh3 Change in Gene Expression (Weighted Difference),2 hr to 4 hr Transition,8.012
same,Myl2 Change in Gene Expression (Weighted Difference),2 hr to 4 hr Transition,12.2
same,N6amt2 Change in Gene Expression (Weighted Difference),2 hr to 4 hr Transition,−0.02824
same,Nedd4l Change in Gene Expression (Weighted Difference),2 hr to 4 hr Transition,2.067
same,Nr4a1 Change in Gene Expression (Weighted Difference),2 hr to 4 hr Transition,4.572
same,P2ry1 Change in Gene Expression (Weighted Difference),2 hr to 4 hr Transition,−0.2494
same,Palmd Change in Gene Expression (Weighted Difference),2 hr to 4 hr Transition,2.134
same,Prf1 Change in Gene Expression (Weighted Difference),2 hr to 4 hr Transition,−0.1682
same,Prss23 Change in Gene Expression (Weighted Difference),2 hr to 4 hr Transition,6.983
same,Pxmp4 Change in Gene Expression (Weighted Difference),2 hr to 4 hr Transition,3.362
same,Rai12 Change in Gene Expression (Weighted Difference),2 hr to 4 hr Transition,6.683
same,Rassf5 Change in Gene Expression (Weighted Difference),2 hr to 4 hr Transition,2.519
same,Sik1 Change in Gene Expression (Weighted Difference),2 hr to 4 hr Transition,1.009
same,Slc25a25 Change in Gene Expression (Weighted Difference),2 hr to 4 hr Transition,2.285
same,Slc39a8 Change in Gene Expression (Weighted Difference),2 hr to 4 hr Transition,2.101
same,Tiparp Change in Gene Expression (Weighted Difference),2 hr to 4 hr Transition,2.281
same,Tmed3 Change in Gene Expression (Weighted Difference),2 hr to 4 hr Transition,−0.1013
same,Tmem51 Change in Gene Expression (Weighted Difference),2 hr to 4 hr Transition,6.104
same,Tnfaip8l1 Change in Gene Expression (Weighted Difference),2 hr to 4 hr Transition,2.28
same,Tnip1 Change in Gene Expression (Weighted Difference),2 hr to 4 hr Transition,3.267
same,Tnni1 Change in Gene Expression (Weighted Difference),2 hr to 4 hr Transition,3.47
same,Tnnt1 Change in Gene Expression (Weighted Difference),2 hr to 4 hr Transition,2.946
same,Trib1 Change in Gene Expression (Weighted Difference),2 hr to 4 hr Transition,2.432
same,Zfp36 Change in Gene Expression (Weighted Difference),2 hr to 4 hr Transition,2.638
same,Zfp326 Change in Gene Expression (Weighted Difference),2 hr to 4 hr Transition,2.164
same,% Shared (DBP-induced genes also TLR-induced),4 hr,64%
same,"DBP Unique genes, number",4 hr,13
same,"DBP-Induced genes (≧2x Increased Expression), number",4 hr,36
same,"TLR-Induced among DBP-induced genes, number",4 hr,23^#
same,Acot5 Change in Gene Expression (Weighted Difference),[1],2.251
same,Akr1c18 Change in Gene Expression (Weighted Difference),[1],3.655
same,Atp2c2 Change in Gene Expression (Weighted Difference),[1],5.815
same,Btg2 Change in Gene Expression (Weighted Difference),[1],61.87
same,Ccr4 Change in Gene Expression (Weighted Difference),[1],2.16
same,Cdh10 Change in Gene Expression (Weighted Difference),[1],2.487
same,Cish Change in Gene Expression (Weighted Difference),[1],2.011
same,Cox17 Change in Gene Expression (Weighted Difference),[1],2.318
same,Cysltr1 Change in Gene Expression (Weighted Difference),[1],7.656
same,Egr1 Change in Gene Expression (Weighted Difference),[1],3.561
same,Egr2 Change in Gene Expression (Weighted Difference),[1],2.003
same,Frk Change in Gene Expression (Weighted Difference),[1],6.498
same,Gbp8 Change in Gene Expression (Weighted Difference),[1],4.073
same,Gem Change in Gene Expression (Weighted Difference),[1],2.491
same,Gimap7 Change in Gene Expression (Weighted Difference),[1],4.789
same,Ier3 Change in Gene Expression (Weighted Difference),[1],5.581
same,Il10ra Change in Gene Expression (Weighted Difference),[1],2.325
same,Jun Change in Gene Expression (Weighted Difference),[1],6.095
same,Junb Change in Gene Expression (Weighted Difference),[1],4.5
same,LOC100046066 Change in Gene Expression (Weighted Difference),[1],2.503
same,Madcam1 Change in Gene Expression (Weighted Difference),[1],4.39
same,Med17 Change in Gene Expression (Weighted Difference),[1],3.949
same,Mkks Change in Gene Expression (Weighted Difference),[1],11.97
same,Mndal Change in Gene Expression (Weighted Difference),[1],2.311
same,Myc Change in Gene Expression (Weighted Difference),[1],24.16
same,N6amt2 Change in Gene Expression (Weighted Difference),[1],3.347
same,Nr4a1 Change in Gene Expression (Weighted Difference),[1],5.48
same,P2ry1 Change in Gene Expression (Weighted Difference),[1],2.279
same,Prf1 Change in Gene Expression (Weighted Difference),[1],7.177
same,Sik1 Change in Gene Expression (Weighted Difference),[1],3.072
same,Slc39a8 Change in Gene Expression (Weighted Difference),[1],3.193
same,Tmed3 Change in Gene Expression (Weighted Difference),[1],2.37
same,Zfp36 Change in Gene Expression (Weighted Difference),[1],4.19
same,% Shared (DBP-induced genes also TLR-induced),Total,64%
same,"DBP Unique genes, number",Total,200
same,"DBP-Induced genes (≧2x Increased Expression), number",Total,561 (33*)
same,"TLR-Induced among DBP-induced genes, number",Total,361 (340^#)
